Measurements taken from US9289412B2, “Role of limonoid compounds as neuroprotective agents” (The Johns Hopkins University, priority 2006, dated 2016).
Read-outs that look alike come from different tables or passages of the source.

Tested on: rat mixed hippocampal cultures
Assay: 3-NP neurotoxicity assay, MTT viability, rat mixed hippocampal cultures
Assay type: cell-based
Conditions: for inhibition at 10 µM: Rattus norvegicus
Procedure: For example, a cell viability assay can be used in a preliminary screen on a large series of compounds each of which is tested at a fixed concentration. In some embodiments, mixed hippocampal cell cultures are prepared as described in, e.g., Haughey et al. (1999), J Neurochem, 73(4):1363-1374, and Haughey et al (2004), J Neurosci, 24(1):257-268. Subsequently, the cultures are pretreated for one hour in the presence of a candidate neuroprotective agent and then incubated with a cytotoxic agent for about 18 hours. Examples of cytotoxic agents include, but are not limited to, oxidative stressors (e.g., 3-nitropropionic acid (3-NP) or H2O2), excitatory amino acids (e.g., kainate), or neurotoxic proteins (e.g., Hiv Tat, or Aβ peptides). […] The level of protection (“percent protection”) provided by the test compound at a given test concentration in vitro can be expressed as: […]
A variety of methods for determining cell viability may be used. In some embodiments, cell viability is assessed based on the “MTT” assay method described in Mosmann (1983), J Immunol Methods, 65(1-2):55-63, or a variant thereof. This assay is based on the ability of a mitochondrial dehydrogenase enzyme from viable cells to cleave the tetrazolium rings of the pale yellow MTT and form dark blue formazan crystals, which are trapped in cells and readily quantified by ELISA spectrophotometry.
We sought to evaluate the protective efficacy of a number of modified terpenoid compounds against the against many different neurotoxins, ranging from the chemotoxic 6-OHDA, NMDA, 3-nitropropionic acid (3-NP), and viral proteins such as Tat and gp120. Thus, we established an in vitro neuroprotection assay using rat mixed hippocampal cultures, in which we evaluated the protective efficacy of neuroprotective compounds disclosed herein. The oxidative stressor 3-NP was used to elicit toxicity in the rat hippocampal cultures to mimic the oxidative damage, reactive oxygen species production and ensuing neurodegeneration resulting from HIV infection. Another measure of neurotoxicity which results from HIV infection was evaluated by exposure of the hippocampal cultures to HIV-1 Tat (Li et al (2005), Neurotox Res, 8(1-2): 119-134).
Rat mixed hippocamal neuronal cultures were generated from freshly dissected rat hippocampi (embryonic day 18) in neurobasal media containing 5% fetal bovine serum and 2% B27 supplement. The cells were plated into 96 well plates at a density of 4×10^5 cells/mL and routinely used on days 11-14 following culturing. Cell viability was assessed with MTT [3-(4,5-dimethylthiazol-2-yl)-2,5-diphenyltetrazolium bromide] assay. The MTT assay is based on the ability of a mitochondrial dehydrogenase enzyme from viable cells to cleave the tetrazolium rings of the pale yellow MTT and form dark blue formazan crystals. See Mosmann (1983), J Immunol Methods, 65(1-2):55-63. These crystals are largely impermeable to cell membranes, and thus accumulate within healthy cells. The resultant formazan precipitates are solubilized with DMSO and read on a multiwell scanning spectrophotometer (ELISA reader). The number of surviving cells is directly proportional to the level of the formazan product created.
Mixed hippocampal cultures were incubated with 3-NP (0.5-10 mM) for 18 hours and then assessed for viability using an MTT assay.
Cultures were preincubated with GPI 1046 or Resveratrol for one hour prior to an 18 hour exposure to 3 mM 3-NP. […] The same neuroprotective compounds were evaluated for efficacy against HIV-1 Tat protein toxicity using the same 1 hour preincubation protocol.

[1] = Table 2, vs 3 mM 3-NP 18 h, 1 h preincubation, test concentration (10 μM), read-out: % Protection
[2] = Table 3, 3 mM 3-NP 18 h, 1 h preincubation, test concentration (10 μM), read-out: % Protection vs 3-NP
[3] = Table 2, vs 3 mM 3-NP 18 h, 1 h preincubation, test concentration (10 μM)

| SMILES | inhibition at 10 µM [1] | inhibition at 10 µM [2] | % Protection [3] | also measured |
| --- | --- | --- | --- | --- |
| CC1(C)C(=O)C=C[C@@]2(C)C1CC(=O)[C@]1(C)C2CC[C@@]2(C)[C@H](c3ccoc3)OC(=O)[C@H]3O[C@]321 (some centres unmarked) [DEACETOXY-7-OXOGEDUNIN] | 38% | 38% | – | – |
| CC(=O)O[C@H]1CC[C@@]2(C)C(C[C@@H](OC(C)=O)[C@@]3(C)C4=CC(=O)O[C@@H](c5ccoc5)[C@]4(C)CCC23)C1(C)C (stereo partly drawn) [3-DEOXO-3beta-ACETOXYDEOXYDIHYDROGEDUNIN] | 56% | – | – | – |
| COC(=O)[C@@H]1OC(=O)C2OC23[C@@]1(C)CCC1[C@]2(C)C(CC(=O)[C@]13C)C(C)(C)[C@H](OC(C)=O)C[C@@H]2OC(C)=O (some centres unmarked) [7-DEACETOXY-7-OXOKHIVORINIC ACID, METHYL ESTER] | – | – | 42% | – |
| CC(=O)O[C@H]1C[C@@H](OC(C)=O)C(C)(C)C2C[C@H](OC(C)=O)[C@]3(C)C(CC[C@@]4(C)[C@H](c5ccoc5)OC(=O)[C@H]5O[C@]543)[C@]21C (some centres unmarked) [7-EPIKHIVORIN] | 65% | – | – | – |
| CC(=O)O[C@H]1CC[C@@]2(C)C(C[C@H](OC(C)=O)[C@@]3(C)C4=CC(=O)OC(c5ccoc5)[C@]4(C)CCC23)C1(C)C (stereo partly drawn) [3beta,7beta-DIACETOXYDEOXODEACETOXYDEOXYDIHYDROGEDUNIN] | 61% | – | – | – |
| CC1(C)C2CC(=O)[C@]3(C)C(CC[C@@]4(C)[C@H](c5ccoc5)OC(=O)[C@H]5O[C@]543)[C@@]2(C)C(=O)C[C@H]1O (some centres unmarked) [1,7-DIDEACETOXY-1,7-DIOXO-3-DEACETYLKHIVORIN] | – | 15% | 15% | – |
| CC(=O)O[C@@H]1CC2C(C)(C)C(=O)C3OC3[C@]2(C)C2CC[C@@]3(C)[C@H](c4ccoc4)OC(=O)C4OC43[C@@]21C (some centres unmarked) [EPOXYGEDUNIN] | – | – | 69% | – |
| CC(=O)O[C@@H]1CC2C(C)(C)[C@H](O)C=C[C@]2(C)C2CC[C@]3(C)C(=CC(=O)O[C@H]3c3ccoc3)[C@@]21C (stereo partly drawn) [3-alpha- HYDROXYDEOXYGEDININ, 3-alpha-HYDROXYDEOXYGEDININ] | – | – | 28% | – |
| CC(=O)OC1C[C@H](OC(C)=O)[C@@]2(C)C(C[C@@H](OC(C)=O)[C@]3(C)C2CC[C@@]2(C)[C@H](c4ccoc4)OC(=O)[C@H]4O[C@]423)C1(C)C (some centres unmarked) [KHIVORIN] | 70% | – | – | protection against 3-NP, in words (FIG. 5A) (3 mM 3-NP, 10 μM of Khivorin): nearly complete protection |
| CC(=O)O[C@H]1C[C@@H](OC(C)=O)C(C)(C)C2C[C@@H](O)[C@]3(C)C(CC[C@@]4(C)[C@H](c5ccoc5)OC(=O)[C@H]5O[C@]543)[C@]21C (some centres unmarked) [7-DEACETYLKHIVORIN] | – | 32% | 32% | – |
| COC(=O)C[C@H]1C(C)(C)C(=O)[C@@H]2CC3=C4CC(=O)O[C@@H](c5ccoc5)[C@]4(C)CC[C@@H]3[C@@]1(C)C2=O [MEXICANOLIDE] | – | 9% | – | – |
| CC(=O)O[C@H]1C[C@@H](O)C(C)(C)[C@@H]2C[C@@H](OC(C)=O)[C@]3(C)[C@H](CC[C@@]4(C)[C@@H](c5ccoc5)OC(=O)[C@H]5O[C@@]534)[C@@]12C [3-DEACETYLKHIVORIN] | – | – | – | % Protection vs 3-NP (Table 3, 3 mM 3-NP 18 h, 1 h preincubation, test concentration (10 μM)): 7% |
| COC(=O)C[C@H]1C2(C)CC34OC5(C)O[C@@]6([C@H](OC(C)=O)C(OC(C)=O)[C@]7(C)C(/C(=C(/O)C(C)C)C(=O)O[C@H]7c7ccoc7)[C@@]6(O5)[C@H](OC(C)=O)[C@@]3(O)C2OC(=O)C(C)C)[C@]14C (some centres unmarked) [BUSSEIN] | – | 18% | – | – |
| CCC(C)C(=O)O[C@@H]1C[C@@]2(C)[C@H](c3ccoc3)OC(=O)CC23OC2(C)O[C@]14[C@]1(C)[C@@H](CC(=O)OC)C5(C)CC1(O)[C@](O)(C5OC(=O)C1(C)OC1C)[C@@H](OC(C)=O)[C@]34O2 (some centres unmarked) [UTILIN] | – | 16% | – | – |
| CC(=O)O[C@@H]1CC2C(C)(C)CCC[C@]2(C)C2CC[C@@]3(C)[C@H](c4ccoc4)OC(=O)C4OC43[C@@]21C (some centres unmarked) [DEOXODIHYDROGEDUNIN] | 101% | – | – | – |
| CC(=O)OC1CC2C(C)(C)[C@@H](O)CC[C@]2(C)C2CC[C@]3(C)[C@H](c4ccoc4)OC(=O)[C@H]4O[C@]43[C@]12C (stereo partly drawn) [3beta- HYDROXYDEOXODIHYDRO- GEDUNIN, 3beta-HYDROXYDEOXODIHYDROGEDUNIN] | 82% | – | – | – |
